Laboratory results: the NIST ThermoML archive (doi:10.1016/j.fluid.2010.02.038)
Numbers after ± are expanded uncertainties.

Test: relative permittivity at various frequencies (dimensionless); xn = mol fraction of the nth substance listed
Settings: 303.15 K, 101 kPa, Liquid, Frequency=1 MHz, Capacitive measurement method at f=1 MHz

relative permittivity (x2 = 0)	relative permittivity (x2 = 0.068)	relative permittivity (x2 = 0.141)	relative permittivity (x2 = 0.22)	relative permittivity (x2 = 0.305)	relative permittivity (x2 = 0.397)	relative permittivity (x2 = 0.497)	relative permittivity (x2 = 0.606)	relative permittivity (x2 = 0.725)	relative permittivity (x2 = 0.856)	SMILES
36.55 ± 0.22	–	–	–	–	–	–	–	–	–	CN(C)C=O [dimethylformamide] + NCCO
106.14 ± 0.64	97.77 ± 1.3	90.12 ± 1.2	81.77 ± 1.1	74.02 ± 0.98	66.34 ± 0.87	59.14 ± 0.77	52.04 ± 0.71	44.61 ± 0.66	36.91 ± 0.53	NC=O [formamide] + NCCO
